What was measured:
[1] = Drug uptake in anesthetized cynomolgus monkey brain frontal lobe after 197.5 mins postinjection; type: ADME, organism-based, Macaca fascicularis; details: in vivo
Pons [2] = test: Drug uptake in anesthetized cynomolgus monkey brain pons after 4.5 mins postinjection; type: ADME, organism-based, Macaca fascicularis; details: in vivo, 0.075 h
[3] = Drug uptake in anesthetized cynomolgus monkey brain cerebellum after 65 mins postinjection; type: ADME, organism-based, Macaca fascicularis; details: in vivo
Putamen [4] = test: Drug uptake in anesthetized cynomolgus monkey brain putamen after 197.5 mins postinjection; type: ADME, organism-based, Macaca fascicularis; details: in vivo
Thalamus [5] = test: Drug uptake in anesthetized cynomolgus monkey brain thalamus after 9.5 mins postinjection; type: ADME, organism-based, Macaca fascicularis; set-up: unit not given here; details: in vivo
Medulla [6] = test: Drug uptake in anesthetized cynomolgus monkey brain medulla after 1.5 mins postinjection; type: ADME, organism-based, Macaca fascicularis; details: in vivo, 0.025 h
Pons [7] = test: Drug uptake in anesthetized cynomolgus monkey brain pons after 215 mins postinjection; type: ADME, organism-based, Macaca fascicularis; details: in vivo
Midbrain [8] = test: Drug uptake in anesthetized cynomolgus monkey brain midbrain after 2.5 mins postinjection; type: ADME, organism-based, Macaca fascicularis; set-up: unit not given here; details: in vivo
Medulla [9] = test: Drug uptake in anesthetized cynomolgus monkey brain medulla after 12.5 mins postinjection; type: ADME, organism-based, Macaca fascicularis; details: in vivo
[10] = Ratio of drug uptake in caudate to cerebellum in anesthetized cynomolgus monkey after 95 mins postinjection; type: ADME, organism-based, Macaca fascicularis; details: in vivo
Pons [11] = test: Drug uptake in anesthetized cynomolgus monkey brain pons after 12.5 mins postinjection; type: ADME, organism-based, Macaca fascicularis; details: in vivo
Medulla [12] = test: Drug uptake in anesthetized cynomolgus monkey brain medulla after 65 mins postinjection; type: ADME, organism-based, Macaca fascicularis; details: in vivo
Medulla [13] = test: Drug uptake in anesthetized cynomolgus monkey brain medulla after 4.5 mins postinjection; type: ADME, organism-based, Macaca fascicularis; details: in vivo, 0.075 h
Caudate [14] = test: Drug uptake in anesthetized cynomolgus monkey brain caudate after 235 mins postinjection; type: ADME, organism-based, Macaca fascicularis, Caudate nucleus; details: in vivo
[15] = Drug uptake in anesthetized cynomolgus monkey brain occipital lobe after 6.5 mins postinjection; type: ADME, organism-based, Macaca fascicularis; set-up: unit not given here; details: in vivo
[16] = Ratio of drug uptake in thalamus to cerebellum in anesthetized cynomolgus monkey after 135 mins postinjection; type: ADME, organism-based, Macaca fascicularis; details: in vivo, 2.25 h
[17] = Drug uptake in awake rhesus monkey brain frontal lobe after 105 mins postinjection; type: ADME, organism-based, Macaca mulatta; details: in vivo, 1.75 h
[18] = Drug uptake in awake rhesus monkey brain medulla after 7.5 mins postinjection; type: ADME, organism-based, Macaca mulatta; details: in vivo, 0.125 h
Putamen [19] = test: Drug uptake in anesthetized cynomolgus monkey brain putamen after 125 mins postinjection; type: ADME, organism-based, Macaca fascicularis; details: in vivo
Thalamus [20] = test: Drug uptake in anesthetized cynomolgus monkey brain thalamus after 192.5 mins postinjection; type: ADME, organism-based, Macaca fascicularis; details: in vivo
[21] = Ratio of drug uptake in pons to cerebellum in awake rhesus monkey after 10.5 mins postinjection; type: ADME, organism-based, Macaca mulatta; details: in vivo, 0.175 h
Thalamus [22] = test: Drug uptake in anesthetized cynomolgus monkey brain thalamus after 202.5 mins postinjection; type: ADME, organism-based, Macaca fascicularis; details: in vivo, 3.375 h
Putamen [23] = test: Drug uptake in anesthetized cynomolgus monkey brain putamen after 135 mins postinjection; type: ADME, organism-based, Macaca fascicularis; details: in vivo, 2.25 h
[24] = Drug uptake in anesthetized cynomolgus monkey brain frontal lobe after 215 mins postinjection; type: ADME, organism-based, Macaca fascicularis; details: in vivo
Midbrain [25] = test: Drug uptake in anesthetized cynomolgus monkey brain midbrain after 197.5 mins postinjection; type: ADME, organism-based, Macaca fascicularis; details: in vivo
[26] = Ratio of drug uptake in frontal lobe to cerebellum in anesthetized cynomolgus monkey after 3.5 mins postinjection; type: ADME, organism-based, Macaca fascicularis; details: in vivo
[27] = Drug uptake in anesthetized cynomolgus monkey brain occipital lobe after 18.5 mins postinjection; type: ADME, organism-based, Macaca fascicularis; details: in vivo
Pons [28] = test: Drug uptake in anesthetized cynomolgus monkey brain pons after 165 mins postinjection; type: ADME, organism-based, Macaca fascicularis; details: in vivo, 2.75 h
Thalamus [29] = test: Drug uptake in anesthetized cynomolgus monkey brain thalamus after 95 mins postinjection; type: ADME, organism-based, Macaca fascicularis; set-up: unit not given here; details: in vivo
[30] = Ratio of drug uptake in thalamus to cerebellum in awake rhesus monkey after 105 mins postinjection; type: ADME, organism-based, Macaca mulatta; details: in vivo, 1.75 h
Thalamus [31] = test: Drug uptake in anesthetized cynomolgus monkey brain thalamus after 175 mins postinjection; type: ADME, organism-based, Macaca fascicularis; set-up: unit not given here; details: in vivo
Caudate [32] = test: Drug uptake in anesthetized cynomolgus monkey brain caudate after 65 mins postinjection; type: ADME, organism-based, Macaca fascicularis, Caudate nucleus; details: in vivo
[33] = Ratio of drug uptake in thalamus to cerebellum in awake rhesus monkey after 17.5 mins postinjection; type: ADME, organism-based, Macaca mulatta; details: in vivo
[34] = Drug uptake in awake rhesus monkey brain frontal lobe after 75 mins postinjection; type: ADME, organism-based, Macaca mulatta; details: in vivo, 1.25 h
Medulla [35] = test: Drug uptake in anesthetized cynomolgus monkey brain medulla after 207.5 mins postinjection; type: ADME, organism-based, Macaca fascicularis; details: in vivo
Midbrain [36] = test: Drug uptake in anesthetized cynomolgus monkey brain midbrain after 75 mins postinjection; type: ADME, organism-based, Macaca fascicularis; set-up: unit not given here; details: in vivo, 1.25 h
Pons [37] = test: Drug uptake in anesthetized cynomolgus monkey brain pons after 95 mins postinjection; type: ADME, organism-based, Macaca fascicularis; details: in vivo
Caudate [38] = test: Drug uptake in anesthetized cynomolgus monkey brain caudate after 187.5 mins postinjection; type: ADME, organism-based, Macaca fascicularis, Caudate nucleus; details: in vivo, 3.125 h
[39] = Ratio of drug uptake in frontal lobe to cerebellum in anesthetized cynomolgus monkey after 95 mins postinjection; type: ADME, organism-based, Macaca fascicularis; details: in vivo
Thalamus [40] = test: Drug uptake in anesthetized cynomolgus monkey brain thalamus after 15.5 mins postinjection; type: ADME, organism-based, Macaca fascicularis; set-up: unit not given here; details: in vivo
Midbrain [41] = test: Drug uptake in anesthetized cynomolgus monkey brain midbrain after 27.5 mins postinjection; type: ADME, organism-based, Macaca fascicularis; set-up: unit not given here; details: in vivo
Caudate [42] = test: Drug uptake in anesthetized cynomolgus monkey brain caudate after 145 mins postinjection; type: ADME, organism-based, Macaca fascicularis, Caudate nucleus; details: in vivo
Pons [43] = test: Drug uptake in anesthetized cynomolgus monkey brain pons after 155 mins postinjection; type: ADME, organism-based, Macaca fascicularis; details: in vivo
[44] = Ratio of drug uptake in midbrain to cerebellum in awake rhesus monkey after 7.5 mins postinjection; type: ADME, organism-based, Macaca mulatta; details: in vivo, 0.125 h
Thalamus [45] = test: Drug uptake in anesthetized cynomolgus monkey brain thalamus after 225 mins postinjection; type: ADME, organism-based, Macaca fascicularis; set-up: unit not given here; details: in vivo, 3.75 h
Medulla [46] = test: Drug uptake in anesthetized cynomolgus monkey brain medulla after 165 mins postinjection; type: ADME, organism-based, Macaca fascicularis; details: in vivo, 2.75 h
Caudate [47] = test: Drug uptake in anesthetized cynomolgus monkey brain caudate after 85 mins postinjection; type: ADME, organism-based, Macaca fascicularis, Caudate nucleus; details: in vivo
[48] = Ratio of drug uptake in midbrain to cerebellum in anesthetized cynomolgus monkey after 145 mins postinjection; type: ADME, organism-based, Macaca fascicularis; details: in vivo
[49] = Drug uptake in awake rhesus monkey brain putamen after 75 mins postinjection; type: ADME, organism-based, Macaca mulatta; details: in vivo, 1.25 h
Thalamus [50] = test: Drug uptake in anesthetized cynomolgus monkey brain thalamus after 4.5 mins postinjection; type: ADME, organism-based, Macaca fascicularis; set-up: unit not given here; details: in vivo, 0.075 h
[51] = Ratio of drug uptake in putamen to cerebellum in anesthetized cynomolgus monkey after 9.5 mins postinjection; type: ADME, organism-based, Macaca fascicularis; details: in vivo
[52] = Drug uptake in awake rhesus monkey brain medulla after 65 mins postinjection; type: ADME, organism-based, Macaca mulatta; details: in vivo
[53] = Drug uptake in anesthetized cynomolgus monkey brain occipital lobe after 202.5 mins postinjection; type: ADME, organism-based, Macaca fascicularis; details: in vivo, 3.375 h

What does the source list for `O=C(OCC[18F])C1C2CCC(CC1c1cccc(/C=C\I)c1)N2` (stereo not drawn)?
Drug uptake [1]: 1.58; Drug uptake (Pons [2]): 1.2; Drug uptake [3]: 3.23; Drug uptake (Putamen [4]): 2.63; Drug uptake (Thalamus [5]): 3.01; Drug uptake (Medulla [6]): 0.13; Drug uptake (Pons [7]): 2.08; Drug uptake (Midbrain [8]): 0.54; Drug uptake (Medulla [9]): 3.37; Ratio [10]: 1.3; Drug uptake (Pons [11]): 2.58; Drug uptake (Medulla [12]): 3.97; Drug uptake (Medulla [13]): 1.8; Drug uptake (Caudate [14]): 1.99; Drug uptake [15]: 2; Ratio [16]: 1.8; Drug uptake [17]: 0.1; Drug uptake [18]: 0.07; Drug uptake (Putamen [19]): 3.58; Drug uptake (Thalamus [20]): 2.56; Ratio [21]: 0.9; Drug uptake (Thalamus [22]): 2.52; Drug uptake (Putamen [23]): 3.44; Drug uptake [24]: 1.51; Drug uptake (Midbrain [25]): 3.2; Ratio [26]: 0.6; Drug uptake [27]: 2.84; Drug uptake (Pons [28]): 2.46; Drug uptake (Thalamus [29]): 3.91; Ratio [30]: 1.7; Drug uptake (Thalamus [31]): 2.76; Drug uptake (Caudate [32]): 3.67; Ratio [33]: 1.3; Drug uptake [34]: 0.11; Drug uptake (Medulla [35]): 2.5; Drug uptake (Midbrain [36]): 4.76; Drug uptake (Pons [37]): 3.05; Drug uptake (Caudate [38]): 2.26; Ratio [39]: 1; Drug uptake (Thalamus [40]): 3.48; Drug uptake (Midbrain [41]): 4.71; Drug uptake (Caudate [42]): 2.75; Drug uptake (Pons [43]): 2.5; Ratio [44]: 1.1; Drug uptake (Thalamus [45]): 2.29; Drug uptake (Medulla [46]): 2.88; Drug uptake (Caudate [47]): 3.53; Ratio [48]: 2.1; Drug uptake [49]: 0.17; Drug uptake (Thalamus [50]): 1.57; Ratio [51]: 0.9; Drug uptake [52]: 0.12; Drug uptake [53]: 1.33

Reference: ChEMBL document CHEMBL1151757, “Synthesis, radiosynthesis, and biological evaluation of fluorine-18-labeled 2beta-carbo(fluoroalkoxy)-3beta-(3'-((Z)-2-haloethenyl)phenyl)nortropanes: candidate radioligands for in vivo imaging of the serotonin transporter with positron emission tomography” (J Med Chem, 2008)
